The target in test [1] is GST-tagged KRAS-G12D (2-169) (Homo sapiens, UniProt P01116, G12D). Nature of the test: Nucleotide exchange assay (NEA), SOS-mediated, HTRF, KRAS G12D. The class given is biochemical. Conditions: Table 4; IC50 extracted at 30 min; 20 nM SOScat; read-out: NEA G12D IC50. In short, it runs like this: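 SOS1cat-driven loading of fluorescent GTP-DY-647P1 (150 nM) onto GST-KRAS-G12D (2-169, 0.25 nM) read by time-resolved FRET; SOScat 20 nM, compound preincubated with KRAS 1 h at RT. Signal blanked to no-SOS reactions, normalized to DMSO; IC50 fitted from the 30-min read.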
Sequence of GST-tagged KRAS-G12D (2-169) (P01116 2-169 isoform P01116-2 G12D): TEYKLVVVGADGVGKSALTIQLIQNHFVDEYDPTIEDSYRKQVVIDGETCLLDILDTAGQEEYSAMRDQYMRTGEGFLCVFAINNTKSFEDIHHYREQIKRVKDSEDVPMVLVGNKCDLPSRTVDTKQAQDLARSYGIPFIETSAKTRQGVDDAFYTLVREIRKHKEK
On the technique in general: Time-resolved FRET reads energy transfer from a long-lived donor to a nearby acceptor.

Test [2] has as its target GST-tagged KRAS-G12V (2-169) (Homo sapiens, UniProt P01116, G12V). In words: Nucleotide exchange assay (NEA), SOS-mediated, HTRF, KRAS G12V. Conditions: Table 4; IC50 extracted at 90 min; 80 nM SOS. The class given is biochemical. In a few lines:
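Exchange onto fluorescent GTP-DY-647P1 (150 nM final) catalysed by 80 nM SOS1cat was followed by Tb-anti-GST HTRF at RT for up to 90 min, after 1 h compound pre-incubation with 0.25 nM GST-tagged KRAS-G12V (2-169), pH 7.3. DMSO = 0%, no-SOS blank = 100%; 4-parameter IC50 taken at 90 min.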

The test system of test [3] is phospho-ERK in GP2D (KRAS-G12D) cells. In words: pERK In Cell Western (ICW) assay (Method B), GP2D. The class given is cell-based. In a few lines:
(§1)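 Per well, infrared pERK immunofluorescence was divided by DRAQ5 nuclear signal following 3 h treatment with a 9-point, ½-log compound series; seeding was 5,000 (AGS) or 10,000 (GP2D, SW620) cells per well. Percent-of-blank data were fitted to a four-parameter model for IC50.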

The subject of test [4] is phospho-ERK in SW620 (KRAS-G12V) cells. In words: pERK In Cell Western (ICW) assay (Method B), SW620. The class given is cell-based. Conditions: Homo sapiens, SW-620, 3 h, Table 4. In short, it runs like this: as §1

Molecules are shown by their SMILES.

Sequence of GST-tagged KRAS-G12V (2-169) (P01116 2-169 isoform P01116-2 G12V): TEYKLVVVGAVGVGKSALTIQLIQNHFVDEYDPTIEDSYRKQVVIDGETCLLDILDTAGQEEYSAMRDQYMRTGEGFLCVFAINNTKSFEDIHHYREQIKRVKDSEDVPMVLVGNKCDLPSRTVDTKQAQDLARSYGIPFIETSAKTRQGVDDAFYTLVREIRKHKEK

In the case of `CCN(c1nc(OC[C@@H]2CCCN2C)nc(N2CC3(C2)SCc2sc(N)c(C#N)c23)n1)[C@H](C)c1cccnc1N` [Compound 207, 2-amino-1′-[4-[[(1R)-1-(2-amino-3-pyridyl)ethyl]-ethyl-amino]-6-[[(2S)-1-methylpyrrolidin-2-yl]methoxy]-1,3,5-triazin-2-yl]spiro[6H-thieno[3,4-b]thiophene-4,3′-azetidine]-3-carbonitrile], the IC50 (in general, the midpoint of a concentration-inhibition curve) in test [1] is below 0.01 µM; in test [2], below 0.01 µM; in test [3] (GP2d, 3 h, Table 4), 0.01 to 0.1 µM; in test [4] it was 0.01 to 0.1 µM.
In the case of `CCN(c1nc(OC[C@@H]2CC(F)(F)CN2C)nc(N2CC3(C2)SCc2sc(N)c(C#N)c23)n1)[C@H](C)c1cccnc1N` [Compound 176, 2-amino-1′-[4-[[(1R)-1-(2-amino-3-pyridyl)ethyl]-ethyl-amino]-6-[[(2S)-4,4-difluoro-1-methyl-pyrrolidin-2-yl]methoxy]-1,3,5-triazin-2-yl]spiro[6H-thieno[3,4-b]thiophene-4,3′-azetidine]-3-carbonitrile], the 50% inhibitory concentration (IC50) in test [1] is 0.1 to 1 µM; in test [2], below 0.01 µM; in test [3] (GP2d, 3 h, Table 4), 1 to 20 µM; in test [4], 0.01 to 0.1 µM.
In the same order, the values of `N#Cc1c(N)sc2c1C1(CC2)CN(c2nc(OC[C@@]34CCCN3C[C@H](F)C4)nc(N(CCO)Cc3cn[nH]c3)n2)C1` [Compound 137, 2-amino-1′-[4-[[(2R,8S)-2-fluoro-1,2,3,5,6,7-hexahydropyrrolizin-8-yl]methoxy]-6-[2-hydroxyethyl(1H-pyrazol-4-ylmethyl)amino]-1,3,5-triazin-2-yl]spiro[5,6-dihydrocyclopenta[b]thiophene-4,3′-azetidine]-3-carbonitrile] are 0.1 to 1 µM, 0.01 to 0.1 µM, 1 to 20 µM and 1 to 20 µM.
In the same order, the values of `N#Cc1c(N)sc2c1C1(CC2)CN(c2nc(OC[C@@]34CCCN3C[C@H](F)C4)nc(N3CCCC4(C3)NC(=O)NC4=O)n2)C1` (stereo partly drawn) [Compound 45, 2-amino-1′-[4-(2,4-dioxo-1,3,9-triazaspiro[4.5]decan-9-yl)-6-[[(2R,8S)-2-fluoro-1,2,3,5,6,7-hexahydropyrrolizin-8-yl]methoxy]-1,3,5-triazin-2-yl]spiro[5,6-dihydrocyclopenta[b]thiophene-4,3′-azetidine]-3-carbonitrile] are below 0.01 µM, below 0.01 µM, 0.1 to 1 µM and 1 to 20 µM.
Regarding `CCN(c1nc(OC[C@@]23CCCN2C[C@H](F)C3)nc(N2CC3(CCc4sc(N)c(C#N)c43)C2)n1)[C@H](C)c1cccnc1N` [Compound 173, 2-amino-1′-[4-[[(1R)-1-(2-amino-3-pyridyl)ethyl]-ethyl-amino]-6-[[(2R,8S)-2-fluoro-1,2,3,5,6,7-hexahydropyrrolizin-8-yl]methoxy]-1,3,5-triazin-2-yl]spiro[5,6-dihydrocyclopenta[b]thiophene-4,3′-azetidine]-3-carbonitrile], the IC50 in test [1] is below 0.01 µM; in test [2] it was below 0.01 µM; in test [3] (GP2d, 3 h, Table 4), below 0.01 µM; in test [4], below 0.01 µM.
Consider `CC(c1nsnc1N)N(C)c1nc(OC[C@@]23CCCN2C[C@H](F)C3)nc(N2CC3(C2)SCc2sc(N)c(C#N)c23)n1` (stereo partly drawn) [Compound 174, 2-amino-1′-[4-[1-(4-amino-1,2,5-thiadiazol-3-yl)ethyl-methyl-amino]-6-[[(2R,8S)-2-fluoro-1,2,3,5,6,7-hexahydropyrrolizin-8-yl]methoxy]-1,3,5-triazin-2-yl]spiro[6H-thieno[2,3-c]thiophene-4,3′-azetidine]-3-carbonitrile], for which the IC50 in test [1] was below 0.01 µM; in test [2], below 0.01 µM; in test [3] (GP2d, 3 h, Table 4), 0.01 to 0.1 µM; in test [4], below 0.01 µM.
On to `N#Cc1c(N)sc2c1C1(CC2)CN(c2nc(OC[C@@]34CCCN3C[C@H](F)C4)nc(N3CCCCC3C#N)n2)C1` (stereo partly drawn) [Compound 44, 2-amino-1′-[4-(2-cyano-1-piperidyl)-6-[[(2R,8S)-2-fluoro-1,2,3,5,6,7-hexahydropyrrolizin-8-yl]methoxy]-1,3,5-triazin-2-yl]spiro[5,6-dihydrocyclopenta[b]thiophene-4,3′-azetidine]-3-carbonitrile], for which the IC50 in test [1] is 0.01 to 0.1 µM; in test [2], 0.01 to 0.1 µM; in test [3] (GP2d, 3 h, Table 4), 0.1 to 1 µM; in test [4], 1 to 20 µM.
For the molecule `N#Cc1c(N)sc2c1C1(CC2)CN(c2nc(OC[C@@]34CCCN3C[C@H](F)C4)nc(N3CCC[C@@H](O)[C@@H](O)C3)n2)C1` [Compound 81, 2-amino-1′-[4-[(3S,4R)-3,4-dihydroxyazepan-1-yl]-6-[[(2R,8S)-2-fluoro-1,2,3,5,6,7-hexahydropyrrolizin-8-yl]methoxy]-1,3,5-triazin-2-yl]spiro[5,6-dihydrocyclopenta[b]thiophene-4,3′-azetidine]-3-carbonitrile; 2,2,2-trifluoroacetic acid], the IC50 in test [1] was below 0.01 µM; in test [2], below 0.01 µM; in test [3] (GP2d, 3 h, Table 4), 0.1 to 1 µM; in test [4], 1 to 20 µM.
As for `CC(c1ccns1)N(C)c1nc(OC[C@@]23CCCN2C[C@H](F)C3)nc(N2CC3(CCc4sc(N)c(C#N)c43)C2)n1` (stereo partly drawn) [Compound 158, 2-amino-1′-[4-[[(2R,8S)-2-fluoro-1,2,3,5,6,7-hexahydropyrrolizin-8-yl]methoxy]-6-[1-isothiazol-5-ylethyl(methyl)amino]-1,3,5-triazin-2-yl]spiro[5,6-dihydrocyclopenta[b]thiophene-4,3′-azetidine]-3-carbonitrile], the IC50 in test [1] was 0.1 to 1 µM; in test [2], below 0.01 µM; in test [3] (GP2d, 3 h, Table 4), 1 to 20 µM; in test [4] it was 0.1 to 1 µM.
Regarding `C[C@H](c1cccnc1N)N(C)c1nc(OC[C@@]23CCCN2C[C@H](F)C3)nc(N2CC3(CCCc4sc(N)c(C#N)c43)C2)n1` [Compound 163, 2-amino-1′-[4-[[(1R)-1-(2-amino-3-pyridyl)ethyl]-methyl-amino]-6-[[(2R,8S)-2-fluoro-1,2,3,5,6,7-hexahydropyrrolizin-8-yl]methoxy]-1,3,5-triazin-2-yl]spiro[6,7-dihydro-5H-benzothiophene-4,3′-azetidine]-3-carbonitrile], the IC50 in test [1] was below 0.01 µM; in test [2], below 0.01 µM; in test [3] (GP2d, 3 h, Table 4) it was below 0.01 µM; in test [4], below 0.01 µM.
Take `N#Cc1c(N)sc2c1C1(CC2)CN(c2nc(OC[C@@]34CCCN3C[C@H](F)C4)nc(N3CCCOCC3)n2)C1` [Compound 89, 2-amino-1′-[4-[[(2R,8S)-2-fluoro-1,2,3,5,6,7-hexahydropyrrolizin-8-yl]methoxy]-6-(1,4-oxazepan-4-yl)-1,3,5-triazin-2-yl]spiro[5,6-dihydrocyclopenta[b]thiophene-4,3′-azetidine]-3-carbonitrile]: the IC50 in test [1] was 0.01 to 0.1 µM; in test [2], below 0.01 µM; in test [3] (GP2d, 3 h, Table 4) it was 0.1 to 1 µM; in test [4], 0.1 to 1 µM.
In the case of `N#Cc1c(N)sc2c1C1(CN(c3nc(OC[C@@]45CCCN4C[C@H](F)C5)nc(N(CC(N)=O)Cc4cccnc4N)n3)C1)SC2` [Compound 194, 2-[[4-(2-amino-3-cyano-spiro[6H-thieno[3,4-b]thiophene-4,3′-azetidine]-1′-yl)-6-[[(2R,8S)-2-fluoro-1,2,3,5,6,7-hexahydropyrrolizin-8-yl]methoxy]-1,3,5-triazin-2-yl]-[(2-amino-3-pyridyl)methyl]amino]acetamide], the IC50 in test [1] is below 0.01 µM; in test [2], below 0.01 µM; in test [3] (GP2d, 3 h, Table 4), 1 to 20 µM; in test [4], 1 to 20 µM.
Regarding `CC(c1cccnc1N)N(C)c1nc(OC[C@@]23CCCN2C[C@H](F)C3)nc(N2CC3(CCc4sc(N)c(C#N)c43)C2)n1` (single isomer, unassigned) [Compound 100A, 2-amino-1′-[4-[[(1*)-1-(2-amino-3-pyridyl)ethyl]-methyl-amino]-6-[[(2R,8S)-2-fluoro-1,2,3,5,6,7-hexahydropyrrolizin-8-yl]methoxy]-1,3,5-triazin-2-yl]spiro[5,6-dihydrocyclopenta[b]thiophene-4,3′-azetidine]-3-carbonitrile], the IC50 was below 0.01 µM in test [1]; below 0.01 µM in test [2]; 0.01 to 0.1 µM in test [3] (Table 4, 3 hours); below 0.01 µM in test [4].
With `C[C@H](c1cccnc1N)N(CCC#N)c1nc(OCC2(CN3CCOCC3)CC2)nc(N2CC3(C2)SCc2sc(N)c(C#N)c23)n1` [Compound 148, (R)-2′-amino-1-(4-((1-(2-aminopyridin-3-yl)ethyl)(2-cyanoethyl)amino)-6-((1-(morpholinomethyl)cyclopropyl)methoxy)-1,3,5-triazin-2-yl)-6′H-spiro[azetidine-3,4′-thieno[3,4-b]thiophene]-3′-carbonitrile], the IC50 is below 0.01 µM in test [1]; below 0.01 µM in test [2]; 0.01 to 0.1 µM in test [3] (GP2d, 3 h, Table 4); below 0.01 µM in test [4].

These data come from patent publication US12421254B2, “KRAS modulators and uses thereof” (Quanta Therapeutics, Inc., priority 2023, dated 2025).
